These results are taken from ChEMBL document CHEMBL3044559, “Synthesis and antidepressant-like action of N-(2-hydroxyethyl) cinnamamide derivatives in mice” (2011).

In test [1] the test system is Mus musculus. Put plainly: Antidepressant like activity in Mus musculus Kunming (mouse) assessed as reduction of immobility time at 40 mg/kg, po measured during last 4 min of 6 min test by tail suspension test (reference value: 105.7 +/- 10.03 sec). The test is classed as functional.
In test [2] the test system is Mus musculus. Kind of test: Antidepressant like activity in Mus musculus Kunming (mouse) assessed as reduction of immobility time at 40 mg/kg, po measured during last 4 min of 6 min test by forced swimming test (reference value: 183.3 +/- 12.67 sec). The test is classed as functional.

SMILES strings stand for the structures.

On to `O=C(/C=C/c1ccc(F)cc1)NCCO`, for which the Time was 75 s in the test on Mus musculus [1] and 130.8 s in the test on Mus musculus [2].
The matching figures for `COc1ccc(/C=C/C(=O)NCCO)c(OC)c1`: 39.67 s and 143.5 s.
Turning to `COc1cccc(/C=C/C(=O)NCCO)c1`, the values for the Time in the test on Mus musculus [1] and in the test with Mus musculus [2] were 43.33 s and 141 s, respectively.
For the molecule `COc1cc(/C=C/C(=O)NCCO)cc(OC)c1OC`, the Time in the test with Mus musculus [1] is 76.33 s; in the test with Mus musculus [2], 165.5 s.
`O=C(/C=C/c1ccc(Br)cc1)NCCO`: the Time with Mus musculus [1] is given as 57 s; with Mus musculus [2], 119.7 s.
Taken in the same sequence, the figures for `O=C(/C=C/c1ccccc1O)NCCO` were 44.83 s and 146.7 s.
For `O=C(/C=C/c1ccc(Cl)cc1)NCCO`, the Time with Mus musculus [1] was found to be 76.67 s; with Mus musculus [2], 168 s.
Consider `O=C(/C=C/c1ccccc1)NCCO` [IDROCILAMIDE], for which the Time in the test on Mus musculus [1] came to 25 s; in the test on Mus musculus [2] it was 101.2 s.
On to `O=C(/C=C/c1cccc(O)c1)NCCO`, for which the results for the Time in the test on Mus musculus [1] and with Mus musculus [2] were 54 s and 102.8 s, respectively.
For `COc1cc(/C=C/C(=O)NCCO)ccc1O`, the Time is reported as 45 s with Mus musculus [1] and 55 s in the test with Mus musculus [2].
With `COc1ccc(/C=C/C(=O)NCCO)cc1OC`, the Time in the test on Mus musculus [1] was determined as 39.33 s; in the test on Mus musculus [2], 157.8 s.
Regarding `O=C(/C=C/c1ccc(O)cc1)NCCO`, the Time in the test with Mus musculus [1] is on record as 71 s; in the test with Mus musculus [2], 133.3 s.
Take `COc1ccc(/C=C/C(=O)NCCO)cc1`: the Time came to 31.33 s in the test with Mus musculus [1] and 167.5 s in the test with Mus musculus [2].
Consider `COc1ccccc1/C=C/C(=O)NCCO`, for which the Time in the test with Mus musculus [1] is given as 38.67 s; with Mus musculus [2] it was 159.1 s.
In the case of `CNCCC(Oc1ccc(C(F)(F)F)cc1)c1ccccc1` (stereo unspecified) [FLUOXETINE], the Time in the test on Mus musculus [1] was 14.17 s.
For the molecule `CN(C)c1ccc(/C=C/C(=O)NCCO)cc1`, the results for the Time with Mus musculus [1] and in the test with Mus musculus [2] were 64.67 s and 105.5 s, respectively.
